The test system of series [1] is VEGFR2-mediated PI3K/AKT/eNOS and SRC/FAK signaling pathway. Put plainly: Biomarker analysis (immunoblot) in VEGF-stimulated HUVECs. Format: cell-based, human. The note with it: FIG. 2. On the procedure: The harvested cells were lysed by 2× sample loading buffer (250 mM Tris-HCl, pH 6.8; 4% SDS; 10% glycerol; 0.006% bromophenol blue; 2% β-mercaptoethanol; 50 mM sodium fluoride; and 5 mM sodium orthovanadate). The protein concentration was measured, and equal amounts of protein samples were subjected to 6-15% SDS-PAGE. The separated proteins were transferred to PVDF membranes (Millipore, Bedford, Mass.), which were then incubated with primary antibodies diluted in 2.5% BSA in TBST (1:500-1:1000) overnight at 4° C. The membranes were then washed three times with TBST and incubated with the corresponding secondary antibodies. Protein bands were detected with an enhanced chemiluminescence detection kit (Intron, Daejeon, Korea) and an LAS-4000 Imager (Fuji Film Corp., Tokyo, Japan).
The phosphorylation of VEGFR2 (Tyr1175) affects the activation of PI3K signaling, which leads to an increase in vascular permeability. In the VEGF signaling pathway, SRC kinases are downstream of VEGFR2 and regulate vascular permeability and angiogenesis. The activation of FAK is also an important contributor markedly involved in endothelial cell migration, proliferation and adherends junction integrity.
(In western blotting, separated proteins are transferred to a membrane and probed.)

In series [2] the test system is Transgenic zebrafish (flk:EGFP) embryos. Put plainly: Animal model angiogenesis inhibition assay (diabetic retinopathy). Format: in vivo. The note with it: zebrafish larvae. On the procedure: Transgenic zebrafish (flk:EGFP) embryos were provided by the Korea Zebrafish Oraganogenesis Muatant Bank (ZOMB, Daegu, Korea). The zebrafish embryos (3 dpf) were placed in a 12-well plate with 130 mM glucose embryonic H2O and various concentrations of the test compound. At 6 dpf, zebrafish larvae were fixed by 4% paraformaldehyde and stored overnight at 4° C. Next, the larvae were washed with distilled H2O, incubated with 10× trypsin (2.5%) for 90 minutes at 37° C. under a 5% CO2 atmosphere, and washed with distilled H2O. Then, the isolated lenses were isolated from the zebrafish larvae. Optic disc (OD) branches were visualized and photographed using a fluorescence microscope (Axiovert 200M, Carl Zeiss, Del.). The diameters of the larvae vessels were measured by ImageJ software.

Series [3] is described as follows: Plasma stability. Format: in vitro ADME, human. On the procedure: For measuring plasma stability, the test compound (10 μM) was incubated with human plasma at 37° C. After 30 minutes, the reaction was quenched by adding acetonitrile (containing chlopropamide as internal standard). The samples were vortexed for 5 minutes and centrifuged at 14,000 rpm for 5 minutes at 4° C. Then, the supernatant was analyzed using a LC-MS/MS (Kinetex C18 column, Phenomenex, USA).

The test system of series [4] is HUVECs. Put plainly: Scratch wound migration assay. Format: cell-based, human. To be noted: 24 hours, concentration-dependent, FIG. 1. Here is the method: The scratch wound migration assay was performed as follows.
HUVECs were allowed to grow at 90% confluence in 12-well plates pre-coated with 0.2% gelatin and were then incubated for 24 hours. After the cells were attached, they were wounded by scratching with a 0.2 mL pipette tip. The plates were then washed with serum-free medium. Fresh medium was replaced with 2% FBS/EBM-2 medium containing various concentrations of the test compound. The cells were incubated for 24 hours, and images were recorded using an inverted phase-contrast light microscope (Olympus Optical Co. Ltd., Tokyo, Japan).

The nature of series [5]: Aqueous solubility (pH-metric CheqSol). Format: physicochemical. To be noted: 0.15 M KCl, 25° C. On the procedure: The aqueous solubility was measured by the pH-metric CheqSol technique (Sirius Analytical Instruments Ltd.). Experiments was performed in 0.15 M KCl solution under a nitrogen atmosphere, at 25° C., using standardized 0.5 M HCl and 0.5 M KOH solutions.
Series [6] relates to Madin-Darby canine kidney (MDCK) cell line. Put plainly: MDCK permeability. It is filed as in vitro ADME. To be noted: in words. On the procedure: (§1) The permeability was examined using Madin-Darby canine kidney (MDCK) cell line. The MDCK cell line was acquired from the American Type Culture Collection (Manassas, Va.). The cells were seeded in 12 well plates and allowed to grow for 7 days at 37° C. under a 5% CO2 atmosphere. The MDCKI monolayers were equilibrated for 30 minutes in transport buffer (10 mM glucose, 4 mM sodium bicarbonate, HBSS with 1 mM HEPES, pH 7.4) at 37° C. under a 5% CO2 atmosphere prior to the experiment. The permeability of the test compound was examined at 10 μM (with a final DMSO percentage of 1%) in the apical to basolateral (A-to-B) direction. The concentration was analyzed by LC-MS/MS. The apparent permeability (Papp, A-B) was calculated using the following equation 2.
(§2) wherein, dQ/dt is the rate of compound appearance in the receiver compartment (Q is the quantity of compound), C0 is the concentration in the donor compartment, and A is the surface area of the insert.

A short description of series [7]: MDCK permeability. The note with it: dog, MDCK, pH 7.4; 10 μM, apical to basolateral. It is filed as in vitro ADME, canine. On the procedure: as §1, §2
The subject of series [8] is HUVECs. Put plainly: In vitro tube formation assay. It is filed as cell-based, human. Here is the method:
Matrigel (70 μl/well) was coated onto a 96-well plate and polymerized for 30 minutes at 37° C. under a 5% CO2 atmosphere. HUVECs (1.5×10^4 cells/well) and various concentrations of the compound were seeded onto each well of the Matrigel-coated 96-well plate. The cells were then incubated for 8 hours at 37° C. under a 5% CO2 atmosphere. The formation of endothelial cell tubular structures was visualized under an inverted microscope and photographed (Olympus Optical Co. Ltd., Tokyo, Japan). The inhibition rate of tube formation was determined using the following equation. tube formation inhibition rate (%)=[1−(average tube numbersample−average tube numberVEGF(−))/(average tube numberVEGF(+)−average tube numberVEGF(−))]×100 [Equation 1]
The IC50 value was calculated using nonlinear regression analysis using TableCurve 2D v5.01 software (Systat Software Inc., Richmond, Calif., USA).
(§3) The same experiment was carried out for sunitinib as a positive control.
The endothelial cell tubular structure formation assay was performed in the same manner as in the Experimental Example 1.

Series [9] is described as follows: Metabolic stability. Format: in vitro ADME, human. Here is the method:
The test compound (1 μM) was incubated with human liver microsomes (HLM, 0.5 mg protein/ml) for 5 minutes at 37° C. in 100 mM potassium phosphate buffer (pH 7.4). The reaction was initiated by adding NADPH solution and incubated for 30 minutes. To terminate the reaction, acetonitrile (containing chlopropamide as internal standard) was added and centrifuged at 14,000 rpm for 5 minutes at 4° C. Then, the supernatant was analyzed using a LC-MS/MS (Kinetex C18 column, Phenomenex, USA).

The nature of series [10]: pKa. It is filed as physicochemical.
Series [11] has as its system HUVECs. Put plainly: HUVEC cell growth assay (MTT). Format: cell-based, human. The note with it: Homo sapiens, HUVEC; MTT, 24 hours, in the presence of VEGF (50 ng/mL). On the procedure:
Human umbilical vascular endothelial cells (HUVECs) were obtained from the ATCC (Rockville, Md.) and cultured in EGM-2 (Lonza, Walkersville, Md.) supplemented with 10% FBS at 37° C. under a 5% CO2 atmosphere.
Cell growth was assessed by MTT assay. HUVECs (8×10^3 cells/well) were seeded onto a 96-well plate with EGM-2 medium supplemented with 10% FBS for 24 hours. The next day, the culture medium was removed, and the cells were then incubated with serum-free medium for 12 hours. Following serum starvation, the cells were cultured in fresh 2% FBS/EBM-2 medium containing various concentrations of the test compound for 24 hours in the presence of VEGF (50 ng/mL). After the incubation, an MTT solution was added, and the plate was incubated for additional 4 hours. The formazan product was dissolved in DMSO, and the absorbance was detected at 570 nm using a VersaMax ELISA microplate reader (Molecular Devices, Sunnyvale, Calif.).
as §3

For orientation: Aqueous Solubility means the concentration that dissolves in the medium under given conditions. A higher Aqueous Solubility goes with much dissolved substance. The Papp A→B is the apparent permeability from the apical to the basolateral side of a cell layer. Broadly, the IC50 is the midpoint of a concentration-inhibition curve. As usually defined, the pKa is the negative logarithm of the acid dissociation constant. Consider `CCc1ccc2nc(C(c3ccc(OC)c(OC)c3)n3cc(CCN4CCCCC4)nn3)sc2c1` (stereo not drawn) [Compound I-7, 2-((3,4-dimethoxyphenyl)(4-(2-(piperidin-1-yl)ethyl)-1H-1,2,3-triazol-1-yl)methyl)-6-ethylbenzo[d]thiazole], for which the “activation of SRC (p-SRC)/FAK (p-FAK)” value in series [1] (VEGF-stimulated HUVECs) is “inhibited”. The “levels of VEGFR2 (p-VEGFR2) activated by VEGF” value in series [1] (VEGF-stimulated HUVECs) is listed as “suppressed”. The “activation of PI3K (p-PI3K), AKT (p-AKT) and eNOS (p-eNOS)” value in [1] (pretreatment 30 minutes, VEGF (50 ng/mL) 20 minutes) is “significantly suppressed”. Further, in series [2] (130 mM glucose, 3 to 6 dpf, concentration-dependent, FIG. 3), the “increase in hyaloid vessel diameters induced by HG” value is “suppressed”. In addition, the “hyaloid vessel diameters in the optic disc area” value in [2] (high glucose, 2.5 μM) is “markedly reduced”. Further, the “plasma stability” value in series [3] (10 μM, human plasma, 37° C., remaining after 30 minutes) was 95%; in series [3] (in words) it was “high”. Besides, in [4], the “enhancement of endothelial cell migration by VEGF” value is recorded as “inhibited”. Also, the “Aqueous Solubility” value in series [5] is 24 µM. Further, in [6], the MDCK cell permeability result is “high”. Moreover, the Papp A→B at 10 μM in [7] was determined as 110 nm/s. Moreover, the “enhancement of tube formation capacity by VEGF” value in series [8] (HUVECs, concentration-dependent, FIG. 1) was “inhibited”. Further, the half-inhibitory concentration (IC50) in [8] (Homo sapiens, HUVEC, HUVECs on Matrigel, 8 hours, VEGF-induced tube formation) came to 0.631 µM; in series [11], 47.5 µM. Also, the “Selectivity Index (SI)” value in [8] (ratio of the IC50 for HUVEC cell growth to the IC50 for tube formation) is 75.3. Besides, the “Metabolic Stability” value in series [9] (1 μM, human liver microsomes 0.5 mg protein/ml, NADPH, 30 minutes) was 31%. Further, the microsomal stability entry in series [9] (in words, human liver microsomes) was “good”. In series [10], this compound had a pKa of 9.24.

The values above are taken from patent publication US11168081B2, “Alkaloid derivative having angiogenesis inhibitory effect, and pharmaceutical composition containing same” (SEOUL NATIONAL UNIVERSITY R&DB FOUNDATION, priority 2017, dated 2021).
